Consider 26 molecules from patent publication EP3807270B1, “NOVEL HETEROARYL HETEROCYCLYL COMPOUNDS FOR THE TREATMENT OF AUTOIMMUNE DISEASE” (F. Hoffmann-La Roche AG, priority 2018, dated 2019).

This assay concerns the target T1, hTLR7 (Homo sapiens, UniProt Q9NYK1).
T1 sequence (Q9NYK1 27-1049): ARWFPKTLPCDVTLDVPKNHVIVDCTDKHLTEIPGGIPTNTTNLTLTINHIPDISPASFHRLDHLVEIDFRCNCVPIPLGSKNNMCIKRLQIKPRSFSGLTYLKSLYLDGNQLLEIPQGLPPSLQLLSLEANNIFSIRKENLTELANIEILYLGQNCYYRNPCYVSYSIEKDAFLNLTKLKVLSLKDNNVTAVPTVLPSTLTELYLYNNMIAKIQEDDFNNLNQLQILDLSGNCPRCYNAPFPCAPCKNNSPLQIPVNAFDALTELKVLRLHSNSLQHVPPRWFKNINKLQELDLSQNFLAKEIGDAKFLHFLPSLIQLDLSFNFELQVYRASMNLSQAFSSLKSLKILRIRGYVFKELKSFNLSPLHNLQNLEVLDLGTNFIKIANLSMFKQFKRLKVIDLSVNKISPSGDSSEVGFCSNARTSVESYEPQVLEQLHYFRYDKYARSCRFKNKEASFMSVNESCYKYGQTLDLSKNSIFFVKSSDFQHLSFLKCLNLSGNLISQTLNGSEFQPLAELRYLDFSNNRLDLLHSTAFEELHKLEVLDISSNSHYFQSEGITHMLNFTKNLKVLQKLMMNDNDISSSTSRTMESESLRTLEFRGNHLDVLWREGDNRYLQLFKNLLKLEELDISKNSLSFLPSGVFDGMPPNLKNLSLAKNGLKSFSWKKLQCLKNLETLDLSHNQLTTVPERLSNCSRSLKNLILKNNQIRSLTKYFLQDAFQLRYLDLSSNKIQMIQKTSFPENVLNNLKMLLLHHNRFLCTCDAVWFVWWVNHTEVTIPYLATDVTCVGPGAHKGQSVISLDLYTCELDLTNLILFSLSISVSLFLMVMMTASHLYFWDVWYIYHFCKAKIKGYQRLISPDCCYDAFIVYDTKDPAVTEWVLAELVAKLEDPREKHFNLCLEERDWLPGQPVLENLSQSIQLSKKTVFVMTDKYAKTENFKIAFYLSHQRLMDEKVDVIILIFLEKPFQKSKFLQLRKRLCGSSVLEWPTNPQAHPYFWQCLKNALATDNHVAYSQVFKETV
As to the kind of experiment: HEK293-Blue-hTLR-7 cells assay (SEAP reporter, R848 stimulation). The arrangement: host or cells: HEK293 (HEK-Blue). The settings on record: HEK293-Blue-hTLR7 cells, R848, 20 hrs; read-out: HEK/hTLR7 IC50. It counts as cell-based. An excerpt:
A stable HEK293-Blue-hTLR-7 cell line was purchased from InvivoGen (Cat.#: hkb-htlr7, San Diego, California, USA). These cells were originally designed for studying the stimulation of human TLR7 by monitoring the activation of NF-κB. A SEAP (secreted embryonic alkaline phosphatase) reporter gene was placed under the control of the IFN-β minimal promoter fused to five NF-κB and AP-1-binding sites. The SEAP was induced by activating NF-xB and AP-1 via stimulating HEK-Blue hTT,R7 cells with TLR7 ligands. Therefore, the reporter expression was declined by TLR7 antagonist under the stimulation of a ligand, such as R848 (Resiquimod), for incubation of 20 hrs. The cell culture supernatant SEAP reporter activity was determined using QUANTI-Blue™ kit (Cat.#: rep-qb1, Invivogen, San Diego, Ca, USA) at a wavelength of 640 nm, a detection medium that turns purple or blue in the presence of alkaline phosphatase.
HEK293-Blue-hTLR7 cells were incubated at a density of 250,000-450,000 cells/mL in a volume of 170 µL in a 96-well plate in Dulbecco's Modified Eagle's medium (DMEM) containing 4.5 g/L glucose, 50 U/mL penicillin, […], […], 2 mM L-glutamine, 10% (v/v) heat-inactivated fetal bovine serum with addition of 20 µL test compound in a serial dilution in the presence of final DMSO at 1% and 10 µL of 20uM R848 in above DMEM, perform incubation under 37 °C in a CO2 incubator for 20 hrs. Then 20 µL of the supernatant from each well was incubated with 180 µL Quanti-blue substrate solution at 37 °C for 2 hrs and the absorbance was read at 620-655 nm using a spectrophotometer. The signaling pathway that TLR7 activation leads to downstream NF-xB activation has been widely accepted, and therefore similar reporter assay was modified for evaluating TLR7 antagonist.

Take `C[C@@H]1CN(c2ccc(C#N)c3ncccc23)C[C@H](CN2CCN(c3ccc4c(n3)CCNC4)C[C@H](O)C2)O1` (single isomer, unassigned) [Example 35A]: the IC50 worked out at 60 nM.

Regarding `C[C@@H]1CN(c2ccc(C#N)c3ncccc23)C[C@H](CN2CCN(c3ccc4c(n3)CCNC4)C[C@@H](O)C2)O1` (single isomer, unassigned) [Example 35B], the IC50 turned out to be 61 nM.

As for `C[C@@H]1CN(c2ccc(C#N)c3ncccc23)C[C@H](CN2C[C@H]3CN(c4ccc5c(n4)CCNC5)CC[C@@H]32)O1` (single isomer, unassigned) [Example 54], the IC50 was found to be 6 nM.

`C[C@@H]1CN(c2ccc(C#N)c3ncccc23)C[C@H](CN2C[C@H]3CN(c4ccc5c(n4)CCNC5)CC[C@H]32)O1` (single isomer, unassigned) [Example 55]: the IC50 came out at 4 nM.

In the case of `C[C@@H]1CN(c2ccc(C#N)c3ncccc23)C[C@H](CN2CCN(c3ccc4c(n3)CN[C@@H]4C)CC2)O1` (single isomer, unassigned) [Example 64], the IC50 was 12 nM.

In the case of `C[C@@H]1CN(c2ccc(C#N)c3ncccc23)C[C@H](CN2CCN(c3ccc4c(n3)[C@@H](C)NC4)CC2)O1` (single isomer, unassigned) [Example 65], the IC50 stood at 7 nM.

Take `C[C@@H]1CN(c2ccc(C#N)c3ncccc23)C[C@H](CN2CCN(c3ccc4c(n3)[C@H](C)NC4)CC2)O1` (single isomer, unassigned) [Example 66]: the IC50 was determined as 14 nM.

Turning to `C[C@@H]1CN(c2ccc(C#N)c3ncccc23)C[C@H](CN2CCN(c3cnc4c(c3)CN[C@@H]4C)CC2)O1` (single isomer, unassigned) [Example 68], the IC50 came out at 13 nM.

Consider `C[C@@H]1CN(c2ccc(C#N)c3ncccc23)C[C@H](CN2CCN(c3cc4c(cn3)CN[C@@H](C)C4)CC2)O1` (single isomer, unassigned) [Example 71], for which the IC50 stood at 24 nM.

As to `C[C@@H]1CN(c2ccc(C#N)c3ncccc23)C[C@H](CN2CCN(c3cc4c(cn3)[C@H](C)NCC4)CC2)O1` (single isomer, unassigned) [Example 72], the IC50 was found to be 13 nM.

For `C[C@@H]1CN(c2ccc(C#N)c3ncccc23)C[C@H](CN2CCN(c3cc4c(cn3)[C@@H](C)NCC4)CC2)O1` (single isomer, unassigned) [Example 73], the IC50 was found to be 17 nM.

With `C[C@@H]1CN(c2ccc(C#N)c3ncccc23)C[C@H](CN2CCN(c3cc4c(cn3)CCN[C@H]4C)CC2)O1` (single isomer, unassigned) [Example 75], the IC50 came to 8 nM.

With `C[C@@H]1CN(c2ccc(C#N)c3nccnc23)C[C@H](CN2CCN(c3ccc4c(n3)CN[C@@H]4C)CC2)O1` (single isomer, unassigned) [Example 79], the IC50 worked out at 8 nM.

As to `C[C@@H]1CN(c2ccc(C#N)c3nccnc23)C[C@H](CN2CCN(c3cc4c(cn3)CN[C@@H](C)C4)CC2)O1` (single isomer, unassigned) [Example 84], the IC50 was determined as 7 nM.

Regarding `C[C@@H]1CN(c2ccc(C#N)c3ncccc23)C[C@H](CN2CC3[C@H](C2)OCCN3c2ccc3c(n2)CCNC3)O1` (stereo in doubt) [Example 53, cis-5-[(2R,6S)-2-methyl-6-[[4-(5,6,7,8-tetrahydro-1,6-naphthyridin-2-yl)-2,3,4a,5,7,7a-hexahydropyrrolo[3,4-b][1,4]oxazin-6-yl]methyl]morpholin-4-yl]quinoline-8-carbonitrile], the IC50 was 3 nM.

With `C[C@@H]1CN(c2ccc(C#N)c3ncccc23)C[C@H](CN2CCN(c3cccc4c3CNC4)CC2)O1` [Example 2, 5-[(2S,6R)-2-[(4-isoindolin-4-ylpiperazin-1-yl)methyl]-6-methyl-morpholin-4-yl] quinoline-8-carbonitrile], the IC50 stood at 4 nM.

In the case of `C[C@@H]1CN(c2ccc(C#N)c3ncccc23)C[C@H](CN2CCN(c3ccc4c(c3)CNC4)[C@@H](CO)C2)O1` [Example 4, 5-[(2S,6R)-2-[[(3R)-3-(hydroxymethyl)-4-isoindolin-5-yl-piperazin-1-yl]methyl]-6-methyl-morpholin-4-yl]quinoline-8-carbonitrile], the IC50 turned out to be 64 nM.

For the molecule `C[C@@H]1CN(c2ccc(C#N)c3ncccc23)C[C@H](CN2CCN(c3ccc4c(c3)CCNC4)CC2)O1` [Example 5, 5-[(2R,6S)-2-methyl-6-[[4-(1,2,3,4-tetrahydroisoquinolin-6-yl)piperazin-1-yl]methyl]morpholin-4-yl]quinoline-8-carbonitrile], the IC50 turned out to be 31 nM.

For the molecule `C[C@@H]1CN(c2ccc(C#N)c3ncsc23)C[C@H](CN2CCN(c3cnc4c(c3)CNC4)CC2)O1` [Example 8, 7-[(2S,6R)-2-[[4-(6,7-dihydro-5H-pyrrolo[3,4-b]pyridin-3-yl)piperazin-1-yl]methyl]-6-methyl-morpholin-4-yl]-1,3-benzothiazole-4-carbonitrile], the IC50 turned out to be 10 nM.

On to `C[C@@H]1CN(c2ccc(C#N)c3ncccc23)C[C@H](CN2CCN(c3ncc4c(n3)CNC4)CC2)O1` [Example 11, 5-[(2S,6R)-2-[[4-(6,7-dihydro-5Hpyrrolo[3,4-d]pyrimidin-2-yl)piperazin-1-yl]methyl]-6-methyl-morpholin-4-yl]quinoline-8-carbonitrile], for which the IC50 was determined as 11 nM.

Take `C[C@@H]1CN(c2ccc(C#N)c3ncccc23)C[C@H](CN2CCN(c3ncc4c(n3)CNCC4)CC2)O1` [Example 12, 5-[(2R,6S)-2-methyl-6-[[4-(5,6,7,8-tetrahydropyrido[3,4-d]pyrimidin-2-yl)piperazin-1-yl]methyl]morpholin-4-yl]quinoline-8-carbonitrile]: the IC50 came out at 11 nM.

For the molecule `C[C@@H]1CN(c2ccc(C#N)c3ncccc23)C[C@H](CN2CCN(c3ccc4c(n3)CCNC4)CC2)O1` [Example 14, 5-[(2R,6S)-2-methyl-6-[[4-(5,6,7,8-tetrahydro-1,6-naphthyridin-2-yl)piperazin-1-yl]methyl]morpholin-4-yl]quinoline-8-carbonitrile], the IC50 was 11 nM.

Consider `C[C@@H]1CN(c2ccc(C#N)c3ncccc23)C[C@H](CN2CCN(c3ccc4c(c3)CNC4)CC2CO)O1` (stereo partly drawn) [Example 15, 5-[(2S,6R)-2-[[2-(hydroxymethyl)-4-isoindolin-5-yl-piperazin-1-yl]methyl]-6-methyl-morpholin-4-yl]quinoline-8-carbonitrile], for which the IC50 was 73 nM.

Turning to `C[C@@H]1CN(c2ccc(C#N)c3ncccc23)C[C@H](CN2CCN(c3ccc4c(c3)CN(CCO)C4)CC2)O1` [Example 16, 5-[(2S,6R)-2-[[4-[2-(2-hydroxyethyl)isoindolin-5-yl]piperazin-1-yl]methyl]-6-methyl-morpholin-4-yl]quinoline-8-carbonitrile], the IC50 was 20 nM.

For the molecule `C[C@@H]1CN(c2ccc(C#N)c3ncccc23)C[C@H](CN2CCN(c3cnc4c(n3)CCNC4)CC2)O1` [Example 17, 5-[(2R,6S)-2-methyl-6-[[4-(5,6,7,8-tetrahydropyrido[3,4-b]pyrazin-2-yl)piperazin-1-yl]methyl]morpholin-4-yl]quinoline-8-carbonitrile], the IC50 came to 11 nM.

With `C[C@@H]1CN(c2ccc(C#N)c3ncccc23)C[C@H](CN2CCN(c3cc4c(cn3)CNC4)CC2)O1` [Example 18, 5-[(2S,6R)-2-[[4-(2,3-dihydro-1H-pyrrolo[3,4-c]pyridin-6-yl)piperazin-1-yl]methyl]-6-methyl-morpholin-4-yl] quinoline-8-carbonitrile], the IC50 was determined as 9 nM.
